Data reported in patent US5258378A, “Pyrroloazepine compounds useful as dopaminergic agents” (Lilly Industries Limited, priority 1990, dated 1993).

Biological target: T1, dopamine, D1 receptors (Rattus norvegicus, UniProt P18901)
T1 construct: from tissue; host or cells: rat striatum (inferred from the cited Billard et al. 1984)
Assay: 3H-SCH23390 binding test (Billard et al.)
Settings: 3H-SCH23390 radioligand; read-out: IC50 value (the concentration of the compound required to reduce the binding of 3H-SCH23390 by 50%)
From the text: As mentioned above, the compounds of formula (I), with the exception of those in which both R^1 and R^2 are hydrogen and those in which R^3 in optionally substituted phenylsulphonyl, have useful central nervous system activity with low toxicity. […] The compounds of formula (I) and pharmaceutically-acceptable acid addition salts thereof, are potent centrally acting compounds which are useful in the treatment of depression, mild anxiety states, certain kinds of psychotic conditions such as schizophrenia and acute mania and parkinsonism.

T1 sequence (P18901 whole entry): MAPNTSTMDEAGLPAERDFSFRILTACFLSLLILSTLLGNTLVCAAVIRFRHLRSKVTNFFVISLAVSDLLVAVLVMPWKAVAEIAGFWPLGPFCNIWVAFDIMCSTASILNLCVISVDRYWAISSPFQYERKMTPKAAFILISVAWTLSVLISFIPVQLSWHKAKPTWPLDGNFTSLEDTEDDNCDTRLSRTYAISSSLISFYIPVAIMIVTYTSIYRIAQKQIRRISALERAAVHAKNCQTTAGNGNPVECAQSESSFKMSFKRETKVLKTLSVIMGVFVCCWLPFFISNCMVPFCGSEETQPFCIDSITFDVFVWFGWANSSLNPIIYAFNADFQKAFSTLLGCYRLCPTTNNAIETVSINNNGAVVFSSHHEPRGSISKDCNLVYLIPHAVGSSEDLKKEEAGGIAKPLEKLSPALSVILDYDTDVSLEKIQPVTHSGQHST

Structure (SMILES) | IC50 [nM]
CN1CCc2c([nH]c(Br)c2Br)C(c2ccccc2)C1 (racemic) [Example 10, 2,3-Dibromo-1,4,5,6,7,8-hexahydro-6-methyl-8-phenylpyrrolo[2,3-d]azepine] | 1100
CN1CCc2c(Br)c[nH]c2C(c2ccccc2)C1 (racemic) [Example 12, 3-Bromo-1,4,5,6,7,8-hexahydro-6-methyl-8-phenylpyrrolo[2,3-d]azepine] | 150
